Data published in patent publication US7271198B2, “Method of treating autoimmune diseases” (Wake Forest University, priority 2000, dated 2007).

Tests used:
HDAC = settings: statement from cited literature; cited from earlier work
[1] = test system: acetylated H3 and H4 histones; assay: Western immunoblot of acetylated H3 and H4 histones in SLE PBMCs; type: cell-based, human; settings: 1000 ng/ml TSA or 20 μM SAHA, 18 hr
Experimental: The effect of TSA and SAHA was examined to determine if HDIs induce accumulation of acetylated histones in SLE PBMCs on the level of histone acetylation in SLE PBMCs. Following culture of PBMCs in the presence of vehicle, 1000 ng/ml TSA or 20 μM SAHA for 18 hr, histones were isolated.

TGF-β1 protein = TGF-β1 protein secretion by PBMCs; type: cell-based, human; settings: SLE PBMCs exposed to TSA and SAHA (summary statement)
Experimental: (§1) Gene expression of TGF-β1 was tested to determine if the gene expression is suppressed by deacetylation of histones in SLE. In this determination, SLE PBMCs or isolated T cells were treated with the histone deacetylase inhibitors (HDIs), TSA or SAHA, for 18hr. […] Subsequently, semi-quantitative PCR was performed to determine the amounts of […] transcripts in SLE and control T cells treated with vehicle or TSA (1000 ng/ml). […] There is no change in GAPDH transcript in normal and SLE T cells after treatment of HDIs. Increased TGF-β1 transcript was associated with a subsequent increase in TGF-β1 protein secretion by SLE PBMCs. When compared to vehicle treated PBMCs, total TGF-β1 protein in culture supernatants from SLE PBMCs increased by approximately 30%. In contrast, there was no increase in total TGF-β1 secretion in TSA treated cells in normal healthy controls. Similar results may be obtained by SAHA.

IL-6 mRNA = IL-6 mRNA in MRL/lpr splenocytes; type: cell-based, mouse; settings: splenocytes from younger MRL/lpr mice pretreated 18 hr, stimulated 6 or 18 hr
Experimental: (§2) In determining whether TSA or SAHA down-regulate IL-6 mRNA content, splenocytes from 24-wk MRL/lpr mice were treated with increasing concentrations of TSA for 18 hr. […] TSA decreased IL-6 transcript at a concentration of 100 ng/ml and exerted maximal inhibition at 300 ng/ml. To address whether TSA and SAHA down-regulate LPS- and IFN-γ induced IL-6 transcript levels, splenocytes from younger MRL/lpr mice were treated in the absence or presence of TSA or SAHA for 18 hr before LPS and IFN-γ stimulation for 6 or 18 hr. […] Next, the effect of TSA and SAHA on IL-6 protein secretion in stimulated splenocytes was measured (FIG. 10D). When splenocytes were cultured with LPS and IFN-γ for 72 hr, there was a mean (±SEM) 34.4±7.6 pg/ml of IL-6 protein secretion.

IL-6 protein = IL-6 protein secretion by MRL/lpr splenocytes; type: cell-based, mouse; settings: splenocytes with LPS and IFN-γ 72 hr; stimulated control 34.4±7.6 pg/ml; p=0.002
Experimental: as §2

TGF-β1 mRNA = assay: PCR of TGF-β1 mRNA in SLE and control T cells / PBMCs; type: cell-based, human; settings: SLE PBMCs exposed to TSA and SAHA (summary statement)
Experimental: as §1

IL-10 mRNA = IL-10 mRNA in MRL/lpr splenocytes; type: cell-based, mouse; settings: splenocytes from 10-wk old MRL/lpr mice pretreated 18 hr, stimulated 6 or 18 hr
Experimental: In investigating whether TSA down-regulates IL-10 mRNA, MRL/lpr splenocytes were treated with increasing concentrations of TSA. The heightened, constitutive expression of IL-10 mRNA confirms previous findings (FIGS. 11A & 11B, lane 1). […] To address whether TSA and SAHA down-regulate LPS- and IFN-γ induced IL-10 transcript, splenocytes from 10-wk old MRL/lpr mice were treated in the absence or presence of TSA or SAHA for 18 hr before LPS and IFN-γ stimulation for 6 or 18 hr.

IFN-γ protein = IFN-γ protein secretion by MRL/lpr splenocytes; type: cell-based, mouse; settings: Con A-stimulated splenocytes from younger MRL/lpr mice, 72 hr; p=0.004
Excerpt: The marked inhibition of IFN-γ transcript by these inhibitors prompted us to quantify IFN-γ protein secretion in splenocyte culture supernatants. Over 72 hr, Con A, but not LPS, stimulated splenocytes from younger MRL/lpr mice to secrete a mean (±SEM) 1,563.2±88.3 pg/ml of IFN-γ (FIG. 8D). […] Thus, inhibition of IFN-γ transcription by TSA and SAHA blocks secretion of IFN-γ protein by splenocytes.

IL-10 protein = IL-10 protein secretion by MRL/lpr splenocytes; type: cell-based, mouse; settings: MRL/lpr splenocytes stimulated by LPS, Con A, or LPS+IFN-γ, 72 hr
Excerpt: To determine the effect of TSA and SAHA on IL-10 protein secretion, MRL/lpr splenocytes were stimulated with Con A, LPS, or LPS+IFN-γ for 72 hr in the absence or presence of TSA or SAHA. As shown in the FIG. 11D, splenocytes stimulated with Con A, LPS, or LPS+IFN-γ secreted a mean (±SEM) of 31.8±4.5, 32.3±1.9, and 34.8±4.9 pg/ml, respectively, of IL-10 protein.

IL-12 p40 protein = IL-12 p40 protein secretion by MRL/lpr splenocytes; type: cell-based, mouse; settings: splenocytes stimulated with LPS and IFN-γ 24 hr; stimulated control 45.3±9.1; p=0.003
Experimental: When splenocytes were activated with LPS (100 μg/ml) and IFN-γ 100U/ml) for 24 hr the mean (±SEM) IL-12 p40 secretion was 45.3±9.1 pg/ml.

[2] = test system: acetylated H3 and H4 histones; assay: Immunoblot of acetylated H3 and H4 histones in MRL/lpr splenocytes; type: cell-based, mouse; settings: 18 hr exposure
Excerpt: One mechanism by which HDIs suppress transcription of cytokine genes in MRL/lpr splenocytes may be by increasing accumulation of acetylated histones which may result in chromatin remodeling. The accumulation of acetylated histones H3 and H4 in HDI-treated splenocytes was quantified to test this hypothesis. FIG. 12 is an immunoblot analysis of the acetylation levels of H3 and H4 histones.

iNOS mRNA = iNOS mRNA induction in MRL/lpr splenocytes; type: cell-based, mouse; settings: splenocytes from 10 wk old mice, LPS and IFN-γ 24 hr
Excerpt: Excessive production of nitric oxide (NO) is crucial to the initiation and maintenance of glomerulonephritis in MRL/lpr mice. Pharmacologic inhibition of NO synthesis in MRL/lpr mice abrogates disease progression. In examining whether HDIs could suppress inducible nitric oxide synthetase (iNOS), splenocytes from 10 wk old mice were stimulated in the presence or absence of TSA or SAHA with LPS and IFN-γ for 24 hr. […] To determine whether HDIs could suppress nitric oxide secretion by mesangial cells, mesangial cells were stimulated with LPS ([…]) in the presence of vehicle or TSA for 24 hr. The supernatant from the cell culture was assayed for nitric oxide.

IFN-γ mRNA = IFN-γ mRNA in MRL/lpr splenocytes; type: cell-based, mouse
Experimental: In determining whether TSA can down-regulate IFN-γ mRNA, splenocytes from older, 24-wk MRL/lpr mice were treated with 0 to 500 ng/ml of TSA for 18 hr. […] Compared to splenocytes from 10-wk old mice that had low IFN-γ mRNA (FIG. 8B, lane 1), older mice had higher constitutive levels of IFN-γ transcripts normalized to the housekeeping gene, GAPDH (FIG. 8A, lane 1). […] Maximal inhibition of IFN-γ transcript consistently occurred at 500 ng/ml of TSA.
To establish whether TSA or SAHA down-regulates Con A-induced IFN-γ mRNA expression, splenocytes from 10-wk old mice were stimulated with Con A (10 μg/ml) for 18 hr. From previous kinetic studies, IFN-γ mRNA is maximally expressed when T cells are activated for 18 hr. […] Thus, both TSA and SAHA inhibit IFN-γ. mRNA up-regulation in response to mitogenic stimulation.

[3] = test system: IL-12 p35 and p40 transcripts; assay: IL-12 p35 and p40 transcripts in MRL/lpr splenocytes; type: cell-based, mouse; settings: splenocytes from 10-wk old MRL/lpr mice preincubated 18 hr, stimulated 6 or 18 hr
Experimental: In this study, the question of whether TSA down-regulates transcription of both IL-12 p35 and p40 subunit mRNA was investigated. […] Splenocytes were stimulated with LPS and IFN-γ for 6 or 18 hr. […] When splenocytes were preincubated with TSA or SAHA for 18 hr and then stimulated with LPS and IFN-γ IL-12 p35 and p40 transcripts were undetectable (FIGS. 9B–D).

CC(=O)NCCCCCCNC(C)=O [HBMA, Hexamethylene bisacetamide]
HDAC inhibition (HDAC): not effective as HDAC Inhibitors

mono-MTM-depudecin
HDAC inhibition (HDAC): do not inhibit HDAC

O=C(CCCCCCC(=O)Nc1ccccc1)NO [SAHA, Suberoylanilide Hydroxamic Acid]
accumulation of acetylated H3 and H4 histones [1]: induced the accumulation | rise in the synthesis of TGF-β1 protein (TGF-β1 protein): 30% | LPS- and IFN-γ induced IL-6 mRNA (IL-6 mRNA): no detectable IL-6 mRNA | IL-6 protein secretion (IL-6 protein): no detectable IL-6 protein secretion | increase in TGF-β1 transcript (TGF-β1 mRNA): eight-fold | LPS- and IFN-γ induced IL-10 mRNA (IL-10 mRNA): no detectable IL-10 mRNA | IFN-γ protein secretion (IFN-γ protein): did not secrete detectable levels | IL-10 protein secretion (IL-10 protein): no detectable IL-10 secretion | IL-12 p40 secretion (mean±SEM) (IL-12 p40 protein): 9.1 ± 1.9 pg/mL | accumulation of acetylated H3 and H4 histones [2]: marked increase | iNOS mRNA induction (iNOS mRNA): able to suppress iNOS mRNA induction | optimal dose in dose titration experiments (IFN-γ mRNA; MRL/lpr splenocytes, data not shown): 10 µM | Con A-induced up-regulation of IFN-γ transcript (IFN-γ mRNA; splenocytes from 10-wk old mice preincubated 18 hr, Con A 10 μg/ml 18 hr, vs vehicle): markedly reduced | LPS and IFN-γ induced IL-12 p35 and p40 transcripts [3]: undetectable

CCOC(=O)C(CCCCCC(=O)N(C)C)(CCCCCC(=O)N(C)C)C(=O)OCC [EMBA, Diethyl bix(pentamethylene-N,N-dimethylcarboxamide) malonate]
HDAC inhibition (HDAC): not effective as HDAC Inhibitors
